From paper PMC8508963 (2021)

Assays:
Assay in all cases: fluorescence titration and Job plot
[1] = tested on: m-tel24 (DNA, G4) TTGGGTTAGGGTTAGGGTTAGGGA; conditions: 100 mM K+ (KCl) plus 20 mM potassium phosphate; pH 7, 20 °C, Job total 2 µM; highest fluorescence; groove binding suggested by induced CD
[2] = tested on: M2 (DNA, G4) TAGGGACGGGCGGGCAGGGT; conditions: 100 mM K+ (KCl) plus 20 mM potassium phosphate; pH 7, 20 °C, Job total 2 µM; medium fluorescence enhancement
[3] = tested on: ds12 (DNA, duplex) CGCGAATTCGCG; conditions: 100 mM K+ (KCl) plus 20 mM potassium phosphate; pH 7, 20 °C, Job total 2 µM; lowest fluorescence enhancement

Measured: binding

CN(C)CCCNC(=O)c1ccc2[nH]c3c([nH]c2c1)c1c(=O)n(CCCN(C)C)c(=O)c2ccc4c(=O)n(CCCN(C)C)c(=O)c3c4c21
yes: all assays above
